From ChEMBL document CHEMBL2412951, “Resonance light scattering technique as a new tool to determine the binding mode of anticancer drug oridonin to DNA” (Eur J Med Chem, 2013) come the findings set out here.

Common to all, as to assay type: nucleic-acid assay
Details in all cases: Bos taurus

Experiment [1] relates to DNA. Kind of experiment: Binding affinity to calf thymus DNA at 10 to 160 uM by resonance light scattering analysis.
In experiment [2] the test system is DNA. Nature of the experiment: Binding affinity to calf thymus DNA at 5 X 10^-5 M by fluorescence polarization assay. In general terms: Polarisation of emitted light reports the rotation of a fluorescent probe.
Experiment [3] concerns Calf thymus DNA. Kind of experiment: Binding affinity to calf thymus double helix DNA at 90 uM by resonance light scattering analysis in presence of 0.005 to 0.2 M NaCl.
Experiment [4] has as its system DNA. Nature of the experiment: Binding affinity to calf thymus DNA at 1 X 10^-5 M by spectrofluorimetric analysis.
Experiment [5] has as its system DNA. Nature of the experiment: Binding affinity to calf thymus DNA at 1 ug/ml at pH 2.5 by SEM analysis.
The subject of experiment [6] is Calf thymus DNA. Kind of experiment: Binding affinity to calf thymus dsDNA at 1 X 10^-5 to 2 x 10^-5 M after 10 mins by UV/vis spectrophotometric analysis.
In experiment [7] the test system is DNA. Kind of experiment: Binding affinity to calf thymus DNA at 10^-5 M by atomic force microscopic analysis.
In experiment [8] the test system is DNA. Kind of experiment: Binding affinity to calf thymus DNA by Stern-Volmer plot analysis.
Experiment [9] has as its system DNA. Kind of experiment: Binding affinity to calf thymus DNA at 90 uM at pH 2 to 8.5 by resonance light scattering analysis.

Active and inactive are the calls of the source. No cut-off for these calls is given here.

Regarding `C=C1C(=O)[C@]23[C@H](O)[C@H]1CC[C@H]2[C@@]12CO[C@]3(O)[C@@H](O)[C@@H]1C(C)(C)CC[C@@H]2O`, the result in the experiment with DNA [1], in the experiment with DNA [2], in the experiment on Calf thymus DNA [3], in the experiment with DNA [4], in the experiment on DNA [5] and in the experiment on Calf thymus DNA [6] was Active. The outcome in the experiment with DNA [7] and with DNA [9] was Active. In the experiment with DNA [8], this compound showed a KSV of 1.79 ×10⁵ /M.
